Assay [1] has as its system Cricetinae gen. sp. Put plainly: Compound was tested for its ability to inhibit the intestinal absorption of [3H]cholesterol in cholesterol-fed hamsters at 5 mg/kg dose. The class given is functional, Cricetulus griseus.
Assay [2] relates to Cricetinae gen. sp. Kind of assay: Compound was tested for its ability to inhibit the intestinal absorption of [3H]cholesterol in cholesterol-fed hamsters at 100 mg/kg dose. The class given is functional, Cricetulus griseus.
Assay [3] relates to Cricetinae gen. sp. Put plainly: Compound was tested for its ability to inhibit the intestinal absorption of [3H]cholesterol in cholesterol-fed hamsters at 10 mg/kg dose. The class given is functional, Cricetulus griseus.
In assay [4] the test system is Cricetinae gen. sp. Kind of assay: Compound was tested for its ability to inhibit the intestinal absorption of [3H]cholesterol in cholesterol-fed hamsters at 200 mg/kg dose. The class given is functional, Cricetulus griseus.
For assay [5], the system named is Cricetinae gen. sp. Kind of assay: Ability to inhibit the intestinal absorption of [3H]cholesterol in cholesterol-fed hamsters. The class given is functional.

For orientation: inhibition in vivo means the drop in the measured response relative to a control, in per cent. A high value points to a response far below the control. Broadly, the ED50 is the dose that gives a 50% effect, or the effect in half of the subjects.

On to `C[C@@H]1CC[C@@]2(OC1)OC1CC3C4CC[C@H]5C[C@@H](O[C@@H]6O[C@@H](CO)[C@@H](O[C@@H]7O[C@@H](COC(=O)Nc8c(Cl)cccc8Cl)[C@@H](OC(=O)Nc8c(Cl)cccc8Cl)[C@H](O)[C@@H]7O)[C@H](O)[C@@H]6O)CC[C@]5(C)C4C(=O)C[C@]3(C)C1[C@@H]2C` (some centres not stated), for which the inhibition in vivo at 5 mg/kg in assay [1] came to 40%.

Compound `C[C@]12CC[C@@H]3c4ccc(O[C@@H]5O[C@@H](CO)[C@@H](O[C@@H]6O[C@@H](CO)[C@@H](O)[C@H](O)[C@@H]6O)[C@H](O)[C@@H]5O)cc4CC[C@H]3[C@@H]1CCC2=O` had an inhibition in vivo at 100 mg/kg in assay [2] of 14%.

Compound `C[C@@H]1CC[C@@]2(OC1)OC1C[C@H]3[C@@H]4CC[C@H]5C[C@@H](O[C@@H]6O[C@@H](CO)[C@@H](O[C@@H]7O[C@@H](CO)[C@@H](O)[C@H](O)[C@@H]7O)[C@H](O)[C@@H]6O)CC[C@]5(C)[C@H]4C(=O)C[C@]3(C)C1[C@@H]2C` (some centres not stated) registered an inhibition in vivo at 10 mg/kg in assay [3] of 23%.

`C[C@@H]1CC[C@@]2(OC1)OC1CC3C4CC[C@H]5C[C@@H](O[C@@H]6O[C@@H](COC(=O)Nc7ccc(Cl)cc7)[C@@H](O[C@@H]7O[C@@H](CO)[C@@H](O)[C@H](O)[C@@H]7O)[C@H](O)[C@@H]6O)CC[C@]5(C)C4C(=O)C[C@]3(C)C1[C@@H]2C` (some centres not stated) showed an inhibition in vivo at 5 mg/kg in assay [1] of 37%.

In assay [4], `C[C@@]12CCC[C@H]1[C@@H]1CC[C@H]3C[C@@H](O[C@@H]4O[C@@H](CO)[C@@H](O[C@@H]5O[C@@H](CO)[C@@H](O)[C@H](O)[C@@H]5O)[C@H](O)[C@@H]4O)CC[C@]3(C)[C@H]1CC2` had an inhibition in vivo at 200 mg/kg of 37%.

`CC(C)CCC[C@@H](C)C1CC[C@H]2[C@@H]3CC[C@H]4C[C@@H](O[C@@H]5O[C@@H](CO)[C@@H](O[C@@H]6O[C@@H](CO)[C@@H](O)[C@H](O)[C@@H]6O)[C@H](O)[C@@H]5O)CC[C@]4(C)[C@H]3CC[C@]12C` (some centres not stated) returned an ED50 in assay [5] of 150 mg/kg.

Take `C[C@@H]1CC[C@@]2(OC1)OC1CC3C4CC[C@H]5C[C@@H](O[C@@H]6O[C@@H](COC(=O)Nc7ccc(Cl)cc7)[C@@H](O[C@@H]7O[C@@H](COC(=O)Nc8ccc(Cl)cc8)[C@@H](O)[C@H](O)[C@@H]7O)[C@H](O)[C@@H]6O)CC[C@]5(C)C4C(=O)C[C@]3(C)C1[C@@H]2C` (some centres not stated): the 50% effect level in assay [5] (ED50) was put at a dose of 5 mg/kg.

On to `C[C@@H]1CC[C@@]2(OC1)O[C@H]1C[C@H]3[C@@H]4CC[C@H]5C[C@@H](O[C@@H]6O[C@H](CO)[C@@H](O)[C@H](O)[C@H]6O)CC[C@]5(C)[C@H]4C(=O)C[C@]3(C)[C@H]1[C@@H]2C`, for which the ED50 in assay [5] worked out at 16 mg/kg.

In assay [5], `C[C@@H]1CC[C@@]2(OC1)OC1CC3C4CC[C@H]5C[C@@H](O[C@@H]6O[C@@H](CO)[C@@H](O[C@@H]7O[C@@H](COC(=O)Nc8ccc(F)cc8F)[C@@H](O)[C@H](O)[C@@H]7O)[C@H](O)[C@@H]6O)CC[C@]5(C)C4C(=O)C[C@]3(C)C1[C@@H]2C` (some centres not stated) gave an ED50 of 0.25 mg/kg.

In turn, `C[C@@H]1CC[C@@]2(OC1)OC1CC3C4CC[C@H]5C[C@@H](O[C@@H]6O[C@@H](CO)[C@@H](O[C@@H]7O[C@@H](COC(=O)Nc8ccc(F)cc8)[C@@H](OC(=O)Nc8ccc(F)cc8)[C@H](O)[C@@H]7O)[C@H](O)[C@@H]6O)CC[C@]5(C)C4C(=O)C[C@]3(C)C1[C@@H]2C` (some centres not stated) registered an ED50 in assay [5] of 0.2 mg/kg.

In the case of `C[C@@H]1CC[C@@]2(OC1)OC1CC3C4CC[C@H]5C[C@@H](O[C@@H]6O[C@@H](CO)[C@@H](O[C@@H]7O[C@@H](COC(=O)Nc8ccc(Cl)cc8)[C@@H](O)[C@H](O)[C@@H]7O)[C@H](O)[C@@H]6O)CC[C@]5(C)C4C(=O)C[C@]3(C)C1[C@@H]2C` (some centres not stated), the ED50 in assay [5] stood at 1 mg/kg.

Compound `CC1CC[C@@]2(OC1)OC1C[C@H]3[C@@H]4CC[C@H]5C[C@@H](O[C@@H]6O[C@@H](CO)C(O[C@@H]7O[C@@H](COC(=O)Nc8ccccc8Cl)[C@@H](OC(=O)Nc8ccccc8Cl)[C@H](O)[C@@H]7O)[C@@H](O)[C@@H]6O)CC[C@]5(C)[C@H]4C(=O)C[C@]3(C)C1[C@@H]2C` (some centres not stated) came in with an ED50 in assay [5] of 1 mg/kg.

Source of the values: ChEMBL document CHEMBL1130210, “Steroidal glycoside cholesterol absorption inhibitors” (1997).
